From patent US20180140609A1, “USE OF (4-HYDROXY-2-METHYL-1,1-DIOXIDO-2H-BENZO[E][1,2]THIAZINE-3-YL)(NAPHTHALENE-2-YL) METHANONE IN THE PREVENTION AND/OR TREATMENT OF NON-ALCOHOLIC STEATOHEPATITIS” (PIERRE FABRE MEDICAMENT, priority 2015, published 2018)
Like-named read-outs stand apart in the source and are kept apart here.

Assays:
Format in all cases: in vivo
human 11β-HSD type 1 [1] = biological target: T1, human 11β-HSD type 1 (Homo sapiens, UniProt P28845); assay: Bioactivity of inguinal white adipose tissue after single oral administration in C57BL/6N mice, read as inhibition of human 11β-HSD type 1 (SPA); conditions: mouse inguinal white adipose tissue extract
Method: Four hours post-administration, the mice are euthanized and inguinal white adipose tissue is taken and frozen at −70° C. until the day of bioanalyses. The white adipose tissue is homogenized in liquid nitrogen and then treated with acetonitrile (1 ml of distilled water for 4 ml of acetonitrile and 200 mg of inguinal white adipose tissue) to extract soluble substances. The acetonitrile fraction is collected, then dried, and the residue is dissolved in 1 ml of DMSO for 300 mg of white adipose tissue.
Compounds tested: the same as those of Example 2.

human 11β-HSD type 1 [2] = biological target: T1, human 11β-HSD type 1; assay: Plasma bioactivity after single oral administration in C57BL/6N mice, read as inhibition of human 11β-HSD type 1 (SPA); conditions: for inhibition at 2.5 mg/kg: 2.5 mg/kg oral; for inhibition at 2.5 mg/kg / inhibition at 10 mg/kg: table with plasma levels; for inhibition at 10 mg/kg: 10 mg/kg oral
Method: (§1) The evaluation is made in on 4- to 6-week-old non-fasted male C57BL/6N strain mice. The compounds to be tested or the vehicle (0.5% methylcellulose in water, at 10 ml/kg) are administered orally; n=3 mice per treatment.
(§2) Blood samples are collected 1 h and 4 h after administration; the tubes are centrifuged to obtain plasma and frozen at −70° C. until bioanalysis. Plasma bioactivity (2% final volume) is analyzed by using the inhibition of human 11β-HSD type 1 as a detection system (SPA technology) for each compound at each dose tested. Percent inhibition (versus mice treated with carrier) is calculated for each dose.

[3] = Plasma level by LC/MS after single oral administration in C57BL/6N mice; conditions: parent molecule by LC/MS
Method: as §1, §2
Compound 1 is detected in the plasma of the treated mice and inhibits 11β-HSD type 1 as of 0.63 mg/kg. LC/MS analyses of plasma samples from the animals treated with Compound 1K show a much higher plasma level of the parent molecule than that found for Compound 1.

11β-HSD type 1 = assay: Inhibition of conversion of prednisone to prednisolone after single administration to cynomolgus monkeys; conditions: for inhibition of the prednisolone/prednisone ratio in animals that respond favorably: responders only; for inhibition of plasma prednisolone/prednisone ratio of AUC (30 minutes to 4 hours): prednisone 10 mg/kg 2 h later
Method: The protocol used is described by Bhat et al. (J. Pharmacol. Exp. Ther. 324, 299-305, 2008).
(§3) Briefly, the study is carried out in naive adult male cynomolgus monkeys fasted overnight. The 11β-HSD type 1 inhibitor or its vehicle (0.5% methylcellulose in water) is administered via nasogastric intubation. Two hours later, a challenge with orally administered prednisone (10 mg/kg) is performed and blood samples are taken regularly for 24 hours. These samples are centrifuged to obtain plasma and immediately frozen at −70° C. until bioanalysis. Plasma levels of prednisone, prednisolone and 11β-HSD type 1 inhibitors are measured by LC-MS/MS analytical methods.
(§4) The study is carried out over a period of 10 weeks. Profiles of plasma concentration as a function of time and areas under the curve are calculated using the trapezoidal method for all parameters.
The effect of Compound 1 is evaluated at three doses: 1.25, 5 and 20 mg/kg.
The effect of Compound 1K is evaluated at three doses: 20, 40 and 80 mg/kg. The protocol is quite similar to the preceding, except that only 5 blood samples were taken per monkey rather than 7. Compound 1K was also evaluated over a period of 10 weeks.
The 11β-HSD type 1 activity-dependent conversion of prednisone to prednisolone was evaluated. Compound 2K inhibits roughly 50% this activity at a dose of 20 mg/kg (FIG. 2A). FIG. 2 represents the effects of Compound 2K, at the three doses tested, on plasma prednisolone/prednisone ratio calculated with the area under the curve between 30 minutes and 4 hours (panel A) and on plasma exposure during the 6-hour experimental period (panel B); the results obtained with Compound 1K at a dose of 5 mg/kg are compared in the two panels.

[4] = Clinical and behavioral signs in cynomolgus monkeys during the prednisone challenge studies; conditions: study no. 1, 1.25, 5 and 20 mg/kg
Method: as §3, §4

[5] = mice, 1 h, read-out: Plasma 1 h % inh.
[6] = mice, 4 h, read-out: Plasma 4 h % inh.
[7] = mouse plasma (2% final volume), 1 h after 0.63 mg/kg oral
[8] = mouse plasma, 1 h after 2.5 mg/kg oral
[9] = mouse plasma, 1 h after 10 mg/kg oral
[10] = mouse plasma, 1 h after 40 mg/kg oral
[11] = mouse plasma, 4 h after 0.63 mg/kg oral
[12] = mouse plasma, 4 h after 2.5 mg/kg oral
[13] = mouse plasma, 4 h after 10 mg/kg oral
[14] = mouse plasma, 4 h after 40 mg/kg oral

T1 sequence (P28845 whole entry): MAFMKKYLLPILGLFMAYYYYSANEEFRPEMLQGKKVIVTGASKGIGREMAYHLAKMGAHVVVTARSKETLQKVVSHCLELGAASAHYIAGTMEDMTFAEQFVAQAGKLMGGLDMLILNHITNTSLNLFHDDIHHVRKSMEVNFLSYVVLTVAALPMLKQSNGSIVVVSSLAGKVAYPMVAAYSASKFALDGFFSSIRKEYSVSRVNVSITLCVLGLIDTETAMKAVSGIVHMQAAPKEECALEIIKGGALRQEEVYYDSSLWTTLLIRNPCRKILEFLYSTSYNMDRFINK

| SMILES | % inhibition after 4 h (human 11β-HSD type 1 [1]; 4 h after 0.63 mg/kg oral) | % inhibition after 4 h (human 11β-HSD type 1 [1]; 4 h after 2.5 mg/kg oral) | % inhibition after 4 h (human 11β-HSD type 1 [1]; 4 h after 10 mg/kg oral) | % inhibition after 4 h (human 11β-HSD type 1 [1]; 4 h after 40 mg/kg oral) | % inhibition at 1 h (human 11β-HSD type 1 [2]; [7]) | % inhibition at 1 h (human 11β-HSD type 1 [2]; [8]) | % inhibition at 1 h (human 11β-HSD type 1 [2]; [9]) | % inhibition at 1 h (human 11β-HSD type 1 [2]; [10]) | % inhibition at 4 h (human 11β-HSD type 1 [2]; [11]) | % inhibition at 4 h (human 11β-HSD type 1 [2]; [12]) | % inhibition at 4 h (human 11β-HSD type 1 [2]; [13]) | % inhibition at 4 h (human 11β-HSD type 1 [2]; [14]) | inhibition of plasma prednisolone/prednisone ratio of AUC (30 minutes to 4 hours) (11β-HSD type 1; 20 mg/kg) | further results |
| --- | --- | --- | --- | --- | --- | --- | --- | --- | --- | --- | --- | --- | --- | --- |
| CN1C(C(=O)c2ccc3ccccc3c2)=C(O)c2ccccc2S1(=O)=O [Compound 1, (4-hydroxy-2-methyl-1,1-dioxido-2H-benzo[e][1,2]thiazin-3-yl)(naphthalen-2-yl)methanone] | 8% | 36% | 63% | 79% | 40% | 64% | 81% | 93% | 31% | 60% | 81% | 94% | 34% | inhibition at 2.5 mg/kg (human 11β-HSD type 1 [2]; [5]): 65 ± 8%; inhibition at 2.5 mg/kg (human 11β-HSD type 1 [2]; [6]): 58 ± 5%; inhibition at 10 mg/kg (human 11β-HSD type 1 [2]; [5]): 75 ± 8%; inhibition at 10 mg/kg (human 11β-HSD type 1 [2]; [6]): 73 ± 4%; dose as of which plasma of treated mice inhibits 11β-HSD type 1 (human 11β-HSD type 1 [2]; mice, single oral administration): 0.63 mg/kg; Plasma 1 h ([3]; 2.5 mg/kg oral): 2598 ± 1478 ng/mL; Plasma 4 h ([3]; 2.5 mg/kg oral): 2205 ± 1250 ng/mL; Plasma 1 h ([3]; 10 mg/kg oral): 3675 ± 1781 ng/mL; Plasma 4 h ([3]; 10 mg/kg oral): 3823 ± 2011 ng/mL; animals that respond favorably to the treatment (11β-HSD type 1; 5 mg/kg): 60%; inhibition of the prednisolone/prednisone ratio in animals that respond favorably (11β-HSD type 1; 5 mg/kg): 28%; animals that respond favorably to the treatment (11β-HSD type 1; 20 mg/kg): 80%; inhibition of the prednisolone/prednisone ratio in animals that respond favorably (11β-HSD type 1; 20 mg/kg): 46%; dose as of which inhibition of 11β-HSD type 1 is significant and dose-dependent (11β-HSD type 1; doses 1.25, 5 and 20 mg/kg): 5 mg/kg; clinical or behavioral sign [4]: No particular clinical or behavioral sign |
| CN1C(C(=O)c2ccc(-c3ccc(C#N)cc3)cc2)=C([O-])c2ccccc2S1(=O)=O.[K+] [Compound 2K, potassium 3-(4′-cyanobiphenyl-4-carbonyl)-2-methyl-2H-benzo[e][1,2]thiazin-4-olate 1,1-dioxide, reference compound] | 17% | 46% | 72% | – | 26% | 63% | 84% | – | 29% | 65% | 86% | – | roughly 50% | activity on conversion of prednisone to prednisolone (11β-HSD type 1; doses below 20 mg/kg (1.25, 5 mg/kg)): inactive |
| C1CCc2nnc(C34CC5CC(CC(C5)C3)C4)n2CC1 [Compound 3, 3-(1-adamantyl)-6,7,8,9-tetrahydro-5H-[1,2,4]triazolo[4,3-a]azepine, reference compound] | – | – | 15% | 8% | – | – | 93% | 98% | – | – | 22% | 68% | – | % inhibition after 4 h (human 11β-HSD type 1 [1]; 4 h after 80 mg/kg oral): 13%; % inhibition at 1 h (human 11β-HSD type 1 [2]; mouse plasma, 1 h after 80 mg/kg oral): 101%; % inhibition at 4 h (human 11β-HSD type 1 [2]; mouse plasma, 4 h after 80 mg/kg oral): 94% |
